Experimental findings from US20250154686A1, “COMPOUND LIBRARY” (CHUGAI SEIYAKU KABUSHIKI KAISHA, priority 2021, published 2025) are described below.

In the assay the target is T1, Bcl-2 protein (Recombinant Human Bcl-2 Protein) (Homo sapiens, UniProt P10415).
T1 construct: purchased Novus Biologicals NBP2-34889
Put plainly: AS-MS evaluation of binding of the Example 4 mixture library (1200 compounds/well) to Bcl-2, ASMS ratio (%). The conditions noted are these: Example 4 mixture library. The method, boiled down: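 Affinity-selection MS: 1200 cpds/well, 20 nM each; hBcl-2 20 μM; 25 mM Tris pH 7.4/150 mM NaCl/0.025% Tween-20/1 mM DTT; 1 h, 23 °C, dark; P-2 size-exclusion spin, MeCN:MeOH 1:1 extraction; RP LC/MS; ratio vs no-protein STD and SEC blank.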

Setting [1] is: 1200 compounds/well, Bcl-2 protein, replicate n = 2, value belongs to the MS peak assignable to the compound.

Structures are written as SMILES.

T1 sequence (P10415 whole entry): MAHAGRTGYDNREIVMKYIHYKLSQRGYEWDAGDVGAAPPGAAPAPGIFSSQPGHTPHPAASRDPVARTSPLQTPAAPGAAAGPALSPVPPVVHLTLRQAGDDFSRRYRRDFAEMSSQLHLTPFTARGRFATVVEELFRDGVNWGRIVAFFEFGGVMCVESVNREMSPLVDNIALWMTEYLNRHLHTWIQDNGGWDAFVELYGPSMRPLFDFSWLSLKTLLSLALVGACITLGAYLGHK

In the case of `CCOc1cccc(-c2cc(CN3CCN(c4ccc(C(=O)NS(=O)(=O)CCC(F)(F)F)nn4)CC3)cc(C(F)(F)F)c2)c1` [Compound B2N087-01, 6-[4-[[3-(3-Ethoxyphenyl)-5-(trifluoromethyl)phenyl]methyl]piperazin-1-yl]-N-(3,3,3-trifluoropropylsulfonyl)pyridazine-3-carboxamide], the “ASMS ratio (%) n = 1” value (AS-MS, Bcl-2, replicate n = 1) is given as 0.0%. The “ASMS ratio (%) n = 2” value (AS-MS, Bcl-2, replicate n = 2) was determined as 0.0%.
As for `CCOc1cncc(-c2cc(CN3CCN(c4ccc(C(=O)NS(=O)(=O)CCC(F)(F)F)nn4)CC3)cc(C(F)(F)F)c2)c1` [Compound B2N088-01, 6-[4-[[3-(5-Ethoxypyridin-3-yl)-5-(trifluoromethyl)phenyl]methyl]piperazin-1-yl]-N-(3,3,3-trifluoropropylsulfonyl)pyridazine-3-carboxamide], the “ASMS ratio (%) n = 1” value (AS-MS, Bcl-2, replicate n = 1) came to 0.0%. In addition, for the setting “AS-MS, Bcl-2, replicate n = 2”, the “ASMS ratio (%) n = 2” value came out at 0.0%.
For the compound `CCOc1cccc(-c2cc(CN3CCN(c4ccc(C(=O)NS(=O)(=O)CCC(F)(F)F)nn4)CC3)cc(OC(F)(F)F)c2)c1` [Compound B2N089-01, 6-[4-[[3-(3-Ethoxyphenyl)-5-(trifluoromethoxy)phenyl]methyl]piperazin-1-yl]-N-(3,3,3-trifluoropropylsulfonyl)pyridazine-3-carboxamide], where the note is “AS-MS, Bcl-2, replicate n = 2”, the “ASMS ratio (%) n = 2” value is 0.0%.
Take `CCOc1cncc(-c2cc(CN3CCN(c4ccc(C(=O)NS(=O)(=O)CCC(F)(F)F)nn4)CC3)cc(OC(F)(F)F)c2)c1` [Compound B2N090-01, 6-[4-[[3-(5-Ethoxypyridin-3-yl)-5-(trifluoromethoxy)phenyl]methyl]piperazin-1-yl]-N-(3,3,3-trifluoropropylsulfonyl)pyridazine-3-carboxamide]: where the note is “AS-MS, Bcl-2, replicate n = 1”, the “ASMS ratio (%) n = 1” value is given as 0.0%. Moreover, the “ASMS ratio (%) n = 2” value (AS-MS, Bcl-2, replicate n = 2) is 0.0%.
`CCOc1cccc(-c2ccc(CN3CCN(c4ccc(C(=O)NS(=O)(=O)CCC(F)(F)F)nn4)CC3)c3ccccc23)c1` [Compound B2N091-01, 6-[4-[[4-(3-Ethoxyphenyl)naphthalen-1-yl]methyl]piperazin-1-yl]-N-(3,3,3-trifluoropropylsulfonyl)pyridazine-3-carboxamide]: where the note is “AS-MS, Bcl-2, replicate n = 1”, the “ASMS ratio (%) n = 1” value was 0.0%. The “ASMS ratio (%) n = 2” value (AS-MS, Bcl-2, replicate n = 2) came out at 0.0%.
As to `CCOc1cncc(-c2ccc(CN3CCN(c4ccc(C(=O)NS(=O)(=O)CCC(F)(F)F)nn4)CC3)c3ccccc23)c1` [Compound B2N092-01, 6-[4-[[4-(5-Ethoxypyridin-3-yl)naphthalen-1-yl]methyl]piperazin-1-yl]-N-(3,3,3-trifluoropropylsulfonyl)pyridazine-3-carboxamide], the “ASMS ratio (%) n = 1” value (AS-MS, Bcl-2, replicate n = 1) came out at 0.0%. Further, the “ASMS ratio (%) n = 2” value (AS-MS, Bcl-2, replicate n = 2) was 0.0%.
In the case of `CCOc1cccc(-c2csc(CN3CCN(c4ccc(C(=O)NS(=O)(=O)CCC(F)(F)F)nn4)CC3)c2)c1` [Compound B2N093-01], the “ASMS ratio (%) n = 1” value (AS-MS, Bcl-2, replicate n = 1) was 0.0%.
Take `CCOc1cncc(-c2csc(CN3CCN(c4ccc(C(=O)NS(=O)(=O)CCC(F)(F)F)nn4)CC3)c2)c1` [Compound B2N094-01, 6-[4-[[4-(5-Ethoxypyridin-3-yl)thiophen-2-yl]methyl]piperazin-1-yl]-N-(3,3,3-trifluoropropylsulfonyl)pyridazine-3-carboxamide]: the “ASMS ratio (%) n = 1” value (AS-MS, Bcl-2, replicate n = 1) came out at 0.0%. For the same compound, the “ASMS ratio (%) n = 2” value (AS-MS, Bcl-2, replicate n = 2) turned out to be 0.0%.
For the compound `CCOc1cccc(C#Cc2ccccc2CN2CCN(c3ccc(C(=O)NS(=O)(=O)CCC(F)(F)F)nn3)CC2)c1` [Compound B2N095-01], the “ASMS ratio (%) n = 1” value (AS-MS, Bcl-2, replicate n = 1) turned out to be 0.0%. Besides, where the note is “AS-MS, Bcl-2, replicate n = 2”, the “ASMS ratio (%) n = 2” value is recorded as 0.0%.
For the compound `CCOc1cccc(-c2ccc(C(C)N3CCN(c4ccc(C(=O)NS(=O)(=O)CCC(F)(F)F)cc4)CC3)cc2)c1` (stereo not shown) [Compound B2N097-01, 4-[4-[1-[4-(3-Ethoxyphenyl)phenyl]ethyl]piperazin-1-yl]-N-(3,3,3-trifluoropropylsulfonyl)benzamide], for the setting “AS-MS, Bcl-2, replicate n = 1”, the “ASMS ratio (%) n = 1” value turned out to be 0.0%. Besides, the “ASMS ratio (%) n = 2” value (AS-MS, Bcl-2, replicate n = 2) was 0.0%.
Consider `CCOc1cncc(-c2ccc(C(C)N3CCN(c4ccc(C(=O)NS(=O)(=O)CCC(F)(F)F)cc4)CC3)cc2)c1` (stereo not shown) [Compound B2N098-01, 4-[4-[1-[4-(5-Ethoxypyridin-3-yl)phenyl]ethyl]piperazin-1-yl]-N-(3,3,3-trifluoropropylsulfonyl)benzamide], for which the “ASMS ratio (%) n = 1” value (AS-MS, Bcl-2, replicate n = 1) worked out at 0.0%. In addition, the “ASMS ratio (%) n = 2” value (AS-MS, Bcl-2, replicate n = 2) was −0.7%.
The corresponding values for `CCOc1cccc(-c2ccc(C(C)N3CCN(c4ccc(C(=O)NS(=O)(=O)CCC(F)(F)F)cc4)CC3)c(F)c2)c1` (stereo not shown) [Compound B2N099-01, 4-[4-[1-[4-(3-Ethoxyphenyl)-2-fluorophenyl]ethyl]piperazin-1-yl]-N-(3,3,3-trifluoropropylsulfonyl)benzamide] are 0.0% and 0.0%.
Turning to `CCOc1cncc(-c2ccc(C(C)N3CCN(c4ccc(C(=O)NS(=O)(=O)CCC(F)(F)F)cc4)CC3)c(F)c2)c1` (stereo not shown) [Compound B2N100-01, 4-[4-[1-[4-(5-Ethoxypyridin-3-yl)-2-fluorophenyl]ethyl]piperazin-1-yl]-N-(3,3,3-trifluoropropylsulfonyl)benzamide], the “ASMS ratio (%) n = 1” value (AS-MS, Bcl-2, replicate n = 1) worked out at 0.0%. For the same compound, the “ASMS ratio (%) n = 2” value (AS-MS, Bcl-2, replicate n = 2) was 0.0%.
Regarding `CCOc1cncc(-c2cc(C(=O)N3CCN(c4ccc(C(=O)NS(=O)(=O)c5ccc(NCCSc6ccccc6)c([N+](=O)[O-])c5)cc4)CC3)cc(C(F)(F)F)c2)c1` [Compound B2Q040-01, 4-[4-[3-(5-Ethoxypyridin-3-yl)-5-(trifluoromethyl)benzoyl]piperazin-1-yl]-N-[3-nitro-4-(2-phenylsulfanylethylamino)phenyl]sulfonylbenzamide], the “ASMS ratio (%) n = 1” value (1200 compounds/well, Bcl-2 protein, replicate n = 1, value belongs to the MS peak assignable to the compound) is reported as 3.9%. Besides, the “ASMS ratio (%) n = 2” value under setting [1] is given as 1.5%.
For `CCOc1cccc(-c2cc(CN3CCN(c4ccc(C(=O)NS(=O)(=O)c5ccc(NCCSc6ccccc6)c([N+](=O)[O-])c5)nn4)CC3)cc(OC(F)(F)F)c2)c1` [Compound B2Q089-01, 6-[4-[[3-(3-Ethoxyphenyl)-5-(trifluoromethoxy)phenyl]methyl]piperazin-1-yl]-N-[3-nitro-4-(2-phenylsulfanylethylamino)phenyl]sulfonylpyridazine-3-carboxamide], the “ASMS ratio (%) n = 2” value under setting [1] is recorded as −15.0%.
Regarding `CCOc1cncc(-c2csc(C(=O)N3CCN(c4ccc(C(=O)NS(=O)(=O)c5ccc(NCCSc6ccccc6)c(C(F)(F)F)c5)nn4)CC3)c2)c1` [Compound B2R002-01, 6-[4-[4-(5-Ethoxypyridin-3-yl)thiophene-2-carbonyl]piperazin-1-yl]-N-[4-(2-phenylsulfanylethylamino)-3-(trifluoromethyl)phenyl]sulfonylpyridazine-3-carboxamide], for the setting “AS-MS, Bcl-2, replicate n = 1”, the “ASMS ratio (%) n = 1” value was determined as 0.0%. The “ASMS ratio (%) n = 2” value (AS-MS, Bcl-2, replicate n = 2) came out at 0.0%.
Turning to `CCOc1cccc(-c2ccc(C(=O)N3CCN(c4ccc(C(=O)NS(=O)(=O)c5ccc(NCCSc6ccccc6)c(C(F)(F)F)c5)nn4)CC3)cc2C)c1` [Compound B2R003-01, 6-[4-[4-(3-Ethoxyphenyl)-3-methylbenzoyl]piperazin-1-yl]-N-[4-(2-phenylsulfanylethylamino)-3-(trifluoromethyl)phenyl]sulfonylpyridazine-3-carboxamide], under “AS-MS, Bcl-2, replicate n = 1”, the “ASMS ratio (%) n = 1” value was 21.6%. The “ASMS ratio (%) n = 2” value (AS-MS, Bcl-2, replicate n = 2) is listed as 0.0%.
For `CCOc1cncc(-c2ccc(C(=O)N3CCN(c4ccc(C(=O)NS(=O)(=O)c5ccc(NCCSc6ccccc6)c(C(F)(F)F)c5)nn4)CC3)cc2C)c1` [Compound B2R004-01, 6-[4-[4-(5-Ethoxypyridin-3-yl)-3-methylbenzoyl]piperazin-1-yl]-N-[4-(2-phenylsulfanylethylamino)-3-(trifluoromethyl)phenyl]sulfonylpyridazine-3-carboxamide], the “ASMS ratio (%) n = 1” value (AS-MS, Bcl-2, replicate n = 1) is 0.0%. Also, the “ASMS ratio (%) n = 2” value (AS-MS, Bcl-2, replicate n = 2) is 0.0%.
As to `CCOc1cccc(-c2ccc(C(=O)N3CCN(c4ccc(C(=O)NS(=O)(=O)c5ccc(NCCSc6ccccc6)c(C(F)(F)F)c5)nn4)CC3)cc2F)c1` [Compound B2R005-01, 6-[4-[4-(3-Ethoxyphenyl)-3-fluorobenzoyl]piperazin-1-yl]-N-[4-(2-phenylsulfanylethylamino)-3-(trifluoromethyl)phenyl]sulfonylpyridazine-3-carboxamide], the “ASMS ratio (%) n = 1” value (AS-MS, Bcl-2, replicate n = 1) stood at 44.0%. Also, the “ASMS ratio (%) n = 2” value (AS-MS, Bcl-2, replicate n = 2) is reported as 39.5%.
Turning to `CCOc1cccc(C#Cc2ccccc2C(=O)N2CCN(c3ccc(C(=O)NS(=O)(=O)c4ccc(NCCSc5ccccc5)c(C(F)(F)F)c4)nn3)CC2)c1` [Compound B2R007-01, 6-[4-[2-[2-(3-Ethoxyphenyl)ethynyl]benzoyl]piperazin-1-yl]-N-[4-(2-phenylsulfanylethylamino)-3-(trifluoromethyl)phenyl]sulfonylpyridazine-3-carboxamide], the “ASMS ratio (%) n = 1” value (AS-MS, Bcl-2, replicate n = 1) was determined as 0.0%.
Turning to `CCOc1cncc(C#Cc2ccccc2C(=O)N2CCN(c3ccc(C(=O)NS(=O)(=O)c4ccc(NCCSc5ccccc5)c(C(F)(F)F)c4)nn3)CC2)c1` [Compound B2R008-01, 6-[4-[2-[2-(5-Ethoxypyridin-3-yl)ethynyl]benzoyl]piperazin-1-yl]-N-[4-(2-phenylsulfanylethylamino)-3-(trifluoromethyl)phenyl]sulfonylpyridazine-3-carboxamide], for the setting “AS-MS, Bcl-2, replicate n = 1”, the “ASMS ratio (%) n = 1” value amounted to 0.0%. The “ASMS ratio (%) n = 2” value (AS-MS, Bcl-2, replicate n = 2) stood at 19.5%.
In the case of `CCOc1cccc(C#Cc2cncc(C(=O)N3CCN(c4ccc(C(=O)NS(=O)(=O)c5ccc(NCCSc6ccccc6)c(C(F)(F)F)c5)nn4)CC3)c2)c1` [Compound B2R009-01, 6-[4-[5-[2-(3-Ethoxyphenyl)ethynyl]pyridine-3-carbonyl]piperazin-1-yl]-N-[4-(2-phenylsulfanylethylamino)-3-(trifluoromethyl)phenyl]sulfonylpyridazine-3-carboxamide], the “ASMS ratio (%) n = 1” value (AS-MS, Bcl-2, replicate n = 1) was 0.0%. Further, the “ASMS ratio (%) n = 2” value (AS-MS, Bcl-2, replicate n = 2) is recorded as 19.5%.
